Measurements taken from the supplement of paper PMC13380429.

How the values were obtained:
Conditions in all cases: 72 h
Caco-2 [1] = experiment: cell viability relative to DMSO; higher = less toxic
Calu-3 [2] = experiment: as above
HepG2 [3] = experiment: as above
U2OS [4] = experiment: as above
Vero E6 [5] = experiment: as above
Caco-2 [6] = experiment: relative viability EC50 (midpoint between 100% and the lowest measured viability); higher = less toxic
Calu-3 [7] = experiment: as above
HepG2 [8] = experiment: as above
U2OS [9] = experiment: as above
Vero E6 [10] = experiment: as above
Caco-2 [11] = experiment: drug sensitivity score (DSS) for viability; higher = more toxic; extreme values may be limits of the assay
Calu-3 [12] = experiment: as above
HepG2 [13] = experiment: as above
U2OS [14] = experiment: as above
Vero E6 [15] = experiment: as above

| Structure (SMILES) | cell viability (Caco-2 [1]; 1 nM) | cell viability (Caco-2 [1]; 10 nM) | cell viability (Caco-2 [1]; 100 nM) | cell viability (Caco-2 [1]; 1000 nM) | cell viability (Caco-2 [1]; 10000 nM) | cell viability (Calu-3 [2]; 1 nM) | cell viability (Calu-3 [2]; 10 nM) | cell viability (Calu-3 [2]; 100 nM) | cell viability (Calu-3 [2]; 1000 nM) | cell viability (Calu-3 [2]; 10000 nM) | cell viability (HepG2 [3]; 1 nM) | cell viability (HepG2 [3]; 10 nM) | cell viability (HepG2 [3]; 100 nM) | cell viability (HepG2 [3]; 1000 nM) | cell viability (HepG2 [3]; 10000 nM) | cell viability (U2OS [4]; 1 nM) | cell viability (U2OS [4]; 10 nM) | cell viability (U2OS [4]; 100 nM) | cell viability (U2OS [4]; 1000 nM) | cell viability (U2OS [4]; 10000 nM) | cell viability (Vero E6 [5]; 1 nM) | cell viability (Vero E6 [5]; 10 nM) | cell viability (Vero E6 [5]; 100 nM) | cell viability (Vero E6 [5]; 1000 nM) | cell viability (Vero E6 [5]; 10000 nM) | relative viability EC50 (Caco-2 [6]) | relative viability EC50 (Calu-3 [7]) | relative viability EC50 (HepG2 [8]) | relative viability EC50 (U2OS [9]) | relative viability EC50 (Vero E6 [10]) | drug sensitivity score (Caco-2 [11]) | drug sensitivity score (Calu-3 [12]) | drug sensitivity score (HepG2 [13]) | drug sensitivity score (U2OS [14]) | drug sensitivity score (Vero E6 [15]) |
| --- | --- | --- | --- | --- | --- | --- | --- | --- | --- | --- | --- | --- | --- | --- | --- | --- | --- | --- | --- | --- | --- | --- | --- | --- | --- | --- | --- | --- | --- | --- | --- | --- | --- | --- | --- |
| O=C(CSc1nc2c(c(=O)n1-c1ccccc1)SCC2)Nc1ccc(-c2ccccc2)cn1 [IWP-L6] | 89.2% | 102% | 96.2% | 92.6% | 90.1% | 94.4% | 96.6% | 91.7% | 98.8% | 87.5% | 100% | 92.1% | 105% | 106% | 99.3% | 95.4% | 97.6% | 93.4% | 97.1% | 94.9% | 97% | 97.7% | 95.3% | 95.1% | 96.1% | > 10 µM | > 10 µM | > 10 µM | > 10 µM | > 10 µM | 0 | 0 | 0 | 0 | 0 |
| CC(=O)c1ccc2c(c1)[C@H](NC(=O)c1ccc(F)c(Cl)c1)[C@H](O)C(C)(C)O2 [tonabersat] | 88.2% | 123% | 81.3% | 107% | 86.6% | 95.4% | 100% | 99% | 106% | 111% | 95% | 95.3% | 126% | 97.9% | 90.2% | 100% | 105% | 92.1% | 101% | 101% | 109% | 110% | 103% | 100% | 98.6% | > 10 µM | > 10 µM | > 10 µM | > 10 µM | > 10 µM | 0 | 0 | 0 | 0 | 0 |
| N#Cc1cnc2cnc(NCc3cccnc3)cc2c1Nc1ccc(F)c(Cl)c1 [TC-S-7006] | 93.3% | 99% | 91.1% | 88.3% | 75.6% | 96.6% | 96.8% | 96.9% | 91.8% | 89% | 102% | 93% | 107% | 91.2% | 50% | 96.3% | 106% | 96.1% | 96.8% | 85.2% | 97.2% | 94.1% | 94% | 85.8% | 95.4% | > 10 µM | > 10 µM | 1.85 µM | > 10 µM | > 10 µM | 1.9 | 0 | 4.1 | 0.4 | 0 |
| COc1ccc(C2CC(c3ccccc3)=NN2c2ccc(S(N)(=O)=O)cc2)cc1 (stereo not given) [ML141] | 94.9% | 95.2% | 97.6% | 97.8% | 80.7% | 85.8% | 105% | 105% | 110% | 104% | 106% | 102% | 102% | 104% | 94.8% | 102% | 110% | 93.3% | 108% | 94% | 112% | 103% | 109% | 95.9% | 102% | > 10 µM | > 10 µM | > 10 µM | > 10 µM | > 10 µM | 0.8 | 0 | 0 | 0 | 0 |
| CCCN1CCCC[C@H]1C(=O)Nc1c(C)cccc1C [ropivacaine] | 90.8% | 101% | 92.6% | 102% | 95.3% | 107% | 106% | 90.7% | 103% | 97.5% | 96.5% | 96.7% | 89.2% | 95.6% | 99.4% | 96.6% | 97.9% | 92.2% | 99% | 97.4% | 103% | 103% | 98.3% | 98.7% | 98.1% | > 10 µM | > 10 µM | > 10 µM | > 10 µM | > 10 µM | 0 | 0 | 0 | 0 | 0 |
| CC(C)(C)C(=O)OCC(=O)[C@H]1CC[C@H]2[C@@H]3CCC4=CC(=O)CC[C@]4(C)[C@H]3CC[C@]12C [desoxycorticosterone-pivalate] | 104% | 97% | 103% | 99.7% | 95.3% | 98.9% | 90.9% | 98.6% | 89.2% | 101% | 97% | 98.8% | 95.7% | 89% | 98.2% | 101% | 98.1% | 99.1% | 99.4% | 97.9% | 102% | 99% | 101% | 99.8% | 101% | > 10 µM | > 10 µM | > 10 µM | > 10 µM | > 10 µM | 0 | 0 | 0 | 0 | 0 |
| CC(C)NC(=N)NC(=N)Nc1ccc(Cl)cc1 [proguanil] | 101% | 93.5% | 108% | 105% | 106% | 101% | 90.2% | 96% | 93.7% | 95.4% | 94.8% | 100% | 91.8% | 106% | 101% | 98% | 93.3% | 98.6% | 97.1% | 98.3% | 97% | 91.9% | 87.3% | 100% | 94.7% | > 10 µM | > 10 µM | > 10 µM | > 10 µM | > 10 µM | 0 | 0 | 0 | 0 | 0 |
| O=C(O)c1ccc(N2N=C(Cc3ccccc3)/C(=C\c3ccc(-c4ccccc4F)o3)C2=O)cc1 [GS-143] | 103% | 104% | 99.2% | 93.8% | 87.5% | 102% | 99.1% | 101% | 105% | 99.8% | 107% | 110% | 95.4% | 95.8% | 105% | 105% | 106% | 101% | 104% | 98.8% | 106% | 99% | 99.9% | 101% | 82.7% | > 10 µM | > 10 µM | > 10 µM | > 10 µM | > 10 µM | 0.2 | 0 | 0 | 0 | 0.3 |
| N=C(N)NCCC[C@H](NC(=O)c1sccc1NS(=O)(=O)c1cccc2nsnc12)C(=O)O | 96.9% | 104% | 98.5% | 101% | 105% | 92.7% | 110% | 106% | 117% | 110% | 105% | 101% | 95.8% | 105% | 103% | 98.3% | 102% | 96.3% | 105% | 98.4% | 105% | 103% | 101% | 98.4% | 97.1% | > 10 µM | > 10 µM | > 10 µM | > 10 µM | > 10 µM | 0 | 0 | 0 | 0 | 0 |
| O=Cc1cn(Cc2ccc(Cl)cc2)c2ccccc12 [oncrasin-1] | 92.2% | 90.8% | 97.2% | 101% | 98.6% | 94.8% | 100% | 96.2% | 99.8% | 106% | 101% | 110% | 104% | 40.3% | 1.2% | 97.2% | 96.8% | 102% | 100% | 101% | 90.4% | 102% | 94.1% | 95.9% | 103% | > 10 µM | > 10 µM | 0.847 µM | > 10 µM | > 10 µM | 0 | 0 | 12.5 | 0 | 0 |
| CC(C)(C)C#Cc1cc(N(C(=O)[C@H]2CC[C@H](C)CC2)[C@H]2CC[C@@H](O)CC2)c(C(=O)O)s1 [VX-222] | 103% | 114% | 102% | 99.8% | 101% | 92.5% | 94.9% | 99.2% | 99.3% | 104% | 98.7% | 101% | 91.7% | 96.2% | 101% | 105% | 106% | 98.2% | 105% | 97.6% | 104% | 96.1% | 106% | 99.8% | 102% | > 10 µM | > 10 µM | > 10 µM | > 10 µM | > 10 µM | 0 | 0 | 0 | 0 | 0 |
| N[C@]1(C(=O)O)CC[C@@H](C(=O)O)C1 [cis-ACPD] | 102% | 94.7% | 101% | 104% | 94.5% | 95.3% | 101% | 108% | 107% | 101% | 105% | 111% | 99.5% | 96.1% | 103% | 98.7% | 94.1% | 98.1% | 101% | 97.9% | 103% | 99.1% | 99.4% | 98.1% | 102% | > 10 µM | > 10 µM | > 10 µM | > 10 µM | > 10 µM | 0 | 0 | 0 | 0 | 0 |
| CC(O)Cn1cnc2c1c(=O)n(C)c(=O)n2C (stereo not given) [Proxyphylline] | 102% | 93.9% | 99.9% | 101% | 94.6% | 92.5% | 100% | 106% | 99.3% | 104% | 106% | 102% | 98.7% | 111% | 103% | 98.9% | 92.8% | 95.1% | 93.6% | 104% | 90.1% | 99.1% | 87% | 90.8% | 108% | > 10 µM | > 10 µM | > 10 µM | > 10 µM | > 10 µM | 0 | 0 | 0 | 0 | 0 |
| CC[C@]12C=CCN3CC[C@@]4(c5cc([C@@]6(C(=O)OC)C[C@@H]7C[C@@H](C(C)(F)F)CN(Cc8c6[nH]c6ccccc86)C7)c(OC)cc5N(C)[C@H]4[C@@](O)(C(=O)OC)[C@@H]1OC(C)=O)[C@@H]32 [Vinflunine Ditartrate] | 88.1% | 104% | 77.4% | 55.2% | 41.2% | 108% | 101% | 90.2% | 69.3% | 45.9% | 107% | 95.1% | 61.2% | 32.8% | 34.3% | 101% | 98.1% | 87.5% | 48.6% | 23.1% | 102% | 99.5% | 103% | 64.1% | 24.3% | 0.213 µM | 0.655 µM | 0.0789 µM | 0.493 µM | 1.04 µM | 10.9 | 6.8 | 17 | 11.3 | 8.8 |
